For 22 compounds, IC50 and Activity results are on record in ChEMBL document CHEMBL5131384, “Design, synthesis, and biological evaluation of indole-based hydroxamic acid derivatives as histone deacetylase inhibitors” (Eur J Med Chem, 2022).

The source made the active and inactive calls. The rule behind the calls is not given here.

The target of one assay is Histone deacetylase 1 (Homo sapiens, UniProt Q13547). Put plainly: Inhibition of HDAC1 (unknown origin) using Boc-Lys(Ac)-AMC as substrate incubated for 60 mins by fluorescence plate reader assay.
Assay [1] deals with T1, Protein deacetylase HDAC6 (Homo sapiens, UniProt Q9UBN7).
T1 sequence (Q9UBN7 whole entry): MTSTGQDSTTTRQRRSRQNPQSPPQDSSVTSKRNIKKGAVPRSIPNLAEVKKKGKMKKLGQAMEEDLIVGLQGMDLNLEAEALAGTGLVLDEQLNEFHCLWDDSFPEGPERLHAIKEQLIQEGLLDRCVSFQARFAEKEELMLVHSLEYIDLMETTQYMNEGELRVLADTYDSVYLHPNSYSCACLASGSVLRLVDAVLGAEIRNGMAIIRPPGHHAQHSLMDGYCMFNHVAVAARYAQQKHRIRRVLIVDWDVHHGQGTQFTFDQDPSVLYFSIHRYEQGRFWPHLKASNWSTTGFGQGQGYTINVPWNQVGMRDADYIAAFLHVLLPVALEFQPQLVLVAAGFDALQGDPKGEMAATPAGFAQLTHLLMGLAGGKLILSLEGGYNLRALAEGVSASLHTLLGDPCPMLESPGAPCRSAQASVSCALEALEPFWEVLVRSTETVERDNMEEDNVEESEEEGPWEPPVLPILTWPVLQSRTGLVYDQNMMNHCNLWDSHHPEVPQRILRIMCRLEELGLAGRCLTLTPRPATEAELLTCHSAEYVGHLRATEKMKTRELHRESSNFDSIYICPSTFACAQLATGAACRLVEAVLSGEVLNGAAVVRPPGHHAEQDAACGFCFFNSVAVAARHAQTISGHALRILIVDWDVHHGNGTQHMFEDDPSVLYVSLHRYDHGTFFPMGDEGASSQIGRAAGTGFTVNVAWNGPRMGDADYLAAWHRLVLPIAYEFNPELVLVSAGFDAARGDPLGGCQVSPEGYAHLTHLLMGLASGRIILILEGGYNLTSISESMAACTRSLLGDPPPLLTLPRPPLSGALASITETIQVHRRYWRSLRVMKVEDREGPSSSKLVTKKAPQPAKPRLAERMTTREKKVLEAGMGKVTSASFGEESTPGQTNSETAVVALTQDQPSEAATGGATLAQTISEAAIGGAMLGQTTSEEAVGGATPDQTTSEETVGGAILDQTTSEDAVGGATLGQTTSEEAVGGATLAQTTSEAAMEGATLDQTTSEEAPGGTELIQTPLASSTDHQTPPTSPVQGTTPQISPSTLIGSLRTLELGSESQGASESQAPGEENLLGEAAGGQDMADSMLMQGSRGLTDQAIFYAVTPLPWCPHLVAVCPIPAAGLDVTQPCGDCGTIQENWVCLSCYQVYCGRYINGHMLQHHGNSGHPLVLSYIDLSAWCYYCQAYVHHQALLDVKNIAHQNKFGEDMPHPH
As to the kind of experiment: Inhibition of HDAC6 (unknown origin) using Boc-Lys(Ac)-AMC as substrate incubated for 60 mins by fluorescence plate reader assay.

In a further assay the test system is A549. As to the kind of experiment: Antiproliferative activity against human A549 cells assessed as reduction in cell viability incubated for 72 hrs by WST-8 assay. In kind it is functional, cell-based. The settings on record: A549, 72 h. For orientation: Tetrazolium dyes change colour on reduction, which living cells bring about.
In a further assay the test system is MDA-MB-231. As to the kind of experiment: Antiproliferative activity against human MDA-MB-231 cells assessed as reduction in cell viability incubated for 72 hrs by WST-8 assay. In kind it is functional, cell-based. Particulars: MDA-MB-231, 72 h.
The subject of the next assay is SGC-7901. Put plainly: Antiproliferative activity against human SGC-7901 cells assessed as reduction in cell viability incubated for 72 hrs by WST-8 assay. It is filed as functional, cell-based. The settings on record: SGC-7901, 72 h.
Assay [2] deals with HCT-116. Put plainly: Antiproliferative activity against human HCT-116 cells assessed as reduction in cell viability incubated for 72 hrs by WST-8 assay. The settings on record: HCT-116, 72 h. It is filed as functional, cell-based.
For the next assay, the system named is HL-60. Put plainly: Antiproliferative activity against human HL-60 cells assessed as reduction in cell viability incubated for 72 hrs by WST-8 assay. In kind it is functional, cell-based. Particulars: HL-60, 72 h.
The test system of assay [3] is HCT-116. Put plainly: Induction of apoptosis in human HCT-116 cells assessed as early apoptotic cells at 1 uM incubated for 48 hrs by Annexin V-FITC/propidium iodide staining-based flow cytometric analysis (reference value: 1.73 %). In kind it is functional. On the technique in general: Flow cytometry measures light scatter and fluorescence of single cells or particles in a stream.

For assay [4], the system named is HCT-116. As to the kind of experiment: Induction of apoptosis in human HCT-116 cells assessed as late apoptotic cells at 1 uM incubated for 48 hrs by Annexin V-FITC/propidium iodide staining-based flow cytometric analysis (reference value: 5.80 %). It is filed as functional.
Assay [5] deals with HCT-116. As to the kind of experiment: Induction of cell cycle arrest in human HCT-116 cells assessed as increase in accumulation of cells at G2/M phase at 1 uM incubated for 24 hrs by flow cytometry analysis. It is filed as functional, cell-based.
Assay [6] deals with HCT-116. As to the kind of experiment: Induction of cell cycle arrest in human HCT-116 cells assessed as decrease in accumulation of cells at S phase at 1 uM incubated for 24 hrs by flow cytometry analysis. It is filed as functional, cell-based.

Chain of Histone deacetylase 1 (Q13547 whole entry): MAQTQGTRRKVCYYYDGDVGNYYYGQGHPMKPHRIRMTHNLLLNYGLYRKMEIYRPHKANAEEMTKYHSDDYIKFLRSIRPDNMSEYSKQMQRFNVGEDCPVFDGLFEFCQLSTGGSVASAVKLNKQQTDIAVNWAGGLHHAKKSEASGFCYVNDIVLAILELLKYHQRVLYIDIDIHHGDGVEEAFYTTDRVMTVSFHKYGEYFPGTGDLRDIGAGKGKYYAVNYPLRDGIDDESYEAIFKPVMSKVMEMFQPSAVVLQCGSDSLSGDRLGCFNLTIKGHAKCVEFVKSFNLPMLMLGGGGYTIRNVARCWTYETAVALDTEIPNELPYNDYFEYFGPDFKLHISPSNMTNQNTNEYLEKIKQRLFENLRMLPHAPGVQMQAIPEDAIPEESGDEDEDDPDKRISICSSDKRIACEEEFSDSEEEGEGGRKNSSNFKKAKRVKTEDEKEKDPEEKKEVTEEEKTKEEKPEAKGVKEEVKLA

In general, IC50 refers to the concentration at which inhibition is half-maximal. On to `O=C(CCCCCCn1c(C(=O)NC2C3CC4CC(C3)CC2C4)cc2ccc(Br)cc21)NO` (configuration not stated), for which the half-maximal inhibitory concentration (IC50) came to 3.16 nM against Histone deacetylase 1; 4.64 nM in assay [1]; 920 nM in the assay on A549; 1770 nM in the assay with MDA-MB-231; 180 nM in the assay on SGC-7901; 630 nM with HCT-116 [2]. Further, the IC50 in the assay with HL-60 stood at 510 nM.
As for `O=C(CCCCCn1cc(C(=O)NC2C3CC4CC(C3)CC2C4)c2ccccc21)NO` (configuration not stated), the IC50 amounted to 67.4 nM on Histone deacetylase 1 and 10.4 nM in assay [1].
Turning to `O=C(CCCCCCn1c(C(=O)NC2C3CC4CC(C3)CC2C4)nc2ccccc21)NO` (configuration not stated), the values for the IC50 (at Histone deacetylase 1; in [1]) were 1.68 nM and 5.25 nM, respectively.
`O=C(CCCCCCn1cc(C(=O)NC2CCCCCCC2)c2ccccc21)NO`: the IC50 at Histone deacetylase 1 is 1.31 nM; in assay [1] it was 1.8 nM; with A549, above 100000 nM; in the assay on MDA-MB-231 it was above 100000 nM; in the assay on SGC-7901 it was 67000 nM; with HCT-116 [2] it was above 100000 nM. Also, the IC50 in the assay on HL-60 turned out to be 21500 nM.
For `O=C(CCCCCCn1cc(C(=O)NCc2ccc(Cl)cc2)c2ccccc21)NO`, the half-maximal inhibitory concentration (IC50) against Histone deacetylase 1 was 2.31 nM; in [1] it was 1.56 nM; in the assay with A549, above 100000 nM; in the assay with MDA-MB-231 it was above 100000 nM; in the assay on SGC-7901, above 100000 nM; with HCT-116 [2] it was above 100000 nM. Further, the IC50 in the assay on HL-60 is 72900 nM.
With `CC(=O)SCCCCCCn1cc(C(=O)NC2C3CC4CC(C3)CC2C4)c2ccccc21` (configuration not stated), the IC50 (against Histone deacetylase 1; in [1]) was above 1000 nM each time.
With `O=C(CCCCCCn1cc(C(=O)NC23CC4CC(CC(C4)C2)C3)c2ccccc21)NO`, the IC50 against Histone deacetylase 1 is 1.16 nM; in [1] it was 1.92 nM; in the assay on A549 it was above 100000 nM; with MDA-MB-231 it was 20800 nM; in the assay on SGC-7901, 14700 nM; in the assay on HCT-116 [2] it was 45000 nM. The IC50 with HL-60 was 1050 nM.
As for `O=C(CCCCCCC(=O)Nc1ccccc1)NO` [VORINOSTAT], in the assay on HCT-116 [2], the IC50 came to 3590 nM. Moreover, the values for the Activity in the assay with HCT-116 [3] and with HCT-116 [4] were 3.2% and 36.2%, respectively. Also, the result in the assay with HCT-116 [5] and in the assay with HCT-116 [6] was Active.
With `O=C(CCCCCCn1cc(C(=O)NC2C3CC4CC(C3)CC2C4)c2ccccc21)NO` (configuration not stated), the IC50 against Histone deacetylase 1 is 2.04 nM; in assay [1], 1.7 nM.
As for `O=C(CCCCCCn1c(C(=O)NC2C3CC4CC(C3)CC2C4)cc2cc(Cl)ccc21)NO` (configuration not stated), the IC50 came to 2.16 nM on Histone deacetylase 1 and 6.84 nM in [1].
As for `O=C(CCCCn1cc(C(=O)NC2C3CC4CC(C3)CC2C4)c2ccccc21)NO` (configuration not stated), the results for the IC50 (at Histone deacetylase 1; in assay [1]) were 53.6 nM and 39.9 nM, respectively.
With `O=C(CCCCCCn1cc(C(=O)NC2CCCCCC2)c2ccccc21)NO`, the IC50 on Histone deacetylase 1 is 2 nM; in [1], 2.11 nM.
`O=C(/C=C/c1ccc(Cn2cc(C(=O)NC3C4CC5CC(C4)CC3C5)c3ccccc32)cc1)NO` (configuration not stated): the IC50 against Histone deacetylase 1 is 143 nM; in assay [1], 73.3 nM.
Turning to `O=C(CCCCCCn1nc(C(=O)NC2C3CC4CC(C3)CC2C4)c2ccccc21)NO` (configuration not stated), the IC50 on Histone deacetylase 1 came to 2.96 nM; in assay [1], 2.72 nM.
For `O=C(NC1C2CC3CC(C2)CC1C3)c1cn(CCCCCCCS)c2ccccc12` (configuration not stated), the IC50 against Histone deacetylase 1 came out at 188 nM; in [1], 232 nM.
Turning to `O=C(CCCCCCn1cc(C(=O)Nc2ccc(Cl)cc2Cl)c2ccccc21)NO`, the IC50 came to 2.53 nM against Histone deacetylase 1; 3.73 nM in [1]; 47000 nM in the assay with A549; 16200 nM with MDA-MB-231; 2590 nM in the assay on SGC-7901; 4500 nM in the assay on HCT-116 [2]. For the same compound, the IC50 with HL-60 came out at 10500 nM.
Consider `O=C(CCCCCCn1cc(C(=O)N2CCOCC2)c2ccccc21)NO`, for which the IC50 on Histone deacetylase 1 was 8.95 nM; in assay [1], 7.59 nM.
Consider `CC(=O)SCCCCCCCn1cc(C(=O)NC2C3CC4CC(C3)CC2C4)c2ccccc21` (configuration not stated), for which the IC50 (against Histone deacetylase 1; in assay [1]) was above 1000 nM throughout.
In the case of `O=C(CCCCCCn1c(C(=O)NC2C3CC4CC(C3)CC2C4)cc2ccccc21)NO` (configuration not stated), the IC50 is 2.1 nM on Histone deacetylase 1; 2.43 nM in assay [1]; 60800 nM in the assay with A549; 42600 nM in the assay with MDA-MB-231; 6800 nM in the assay with SGC-7901; 13800 nM with HCT-116 [2]. Also, the IC50 with HL-60 is 5740 nM.
On to `O=C(NC1C2CC3CC(C2)CC1C3)c1cn(CCCCCCS)c2ccccc12` (configuration not stated), for which the figures for the IC50 (on Histone deacetylase 1; in [1]) were 169 nM and 19 nM, respectively.
As for `O=C(NO)c1ccc(Cn2cc(C(=O)NC3C4CC5CC(C4)CC3C5)c3ccccc32)cc1` (configuration not stated), the values for the IC50 (against Histone deacetylase 1; in assay [1]) were 115 nM and 5.29 nM, respectively.
As to `O=C(CCCCCCn1cc(C(=O)NC2CCCCC2)c2ccccc21)NO`, the IC50 on Histone deacetylase 1 is 1.56 nM; in assay [1] it was 2.32 nM; in the assay on A549, above 100000 nM; in the assay with MDA-MB-231, above 100000 nM; in the assay on SGC-7901, 25400 nM; in the assay with HCT-116 [2], 15000 nM. Also, in the assay with HL-60, the IC50 was 8500 nM.
